Where two headings read alike, the source gives them in different places.

The text below walks through data of US4297359A, “Anti-ulcer compositions containing certain pyridyl oxime ethers” (ACF Chemiefarma NV, priority 1978, dated 1981).

Data set [1] has as its system androgen. To be noted: J. Pharm. Sci. 58, 138-141 (1969); cited from earlier work.
The test system of data set [2] is gastric secretion. Put plainly: Effects on Gastric Secretion in the Pyloric Ligated Rat (method of Shay et al.). In kind it is in vivo. To be noted: intraduodenal, 100 mg/kg i.d., 3 hours. The source says:
1. Effects on Gastric Secretion in the Pyloric Ligated Rat
The method as described by Shay et al. (Gastroenterol. 26, 906 (1945)) was used. After overnight starvation the pylorus of a rat was ligated under halothane aenesthesia and the compound under test or vehicle only administered intraduodenally and the rats allowed to recover. They were sacrificed three hours later and the gastric juice removed. After measurement of the volume of secretion, its hydrogen ion concentration, [H^+ ], was determined by titration with 0.5 n NaOH to pH 7. Groups of 4-6 animals were used for each treatment and the inhibitory effect of the compound was ascertained by comparison of the mean values obtained with those from a simultaneously set up control group of animals which received vehicle only. Students `t` test was applied for significance between groups. The mean values for % inhibition obtained for a number of experiments are shown in the following Table 1, the dosage being 100 mg/kg i.d.

Data set [3] relates to indomethacin induced gastric damage. Put plainly: Anti-ulcer activity: inhibition of indomethacin induced gastric damage in the rat (method of Elegbe). Format: in vivo. To be noted: po, 5 h; for inhibition in vivo at 50 mg/kg: 50 mg/kg (footnote *) orally; for inhibition in vivo at 100 mg/kg: read-out: % Inhibition (of gastric damage). How it is done:
Rats were starved overnight, given indomethacin subcutaneously (15 mg/kg) and sacrificed 5 hours later. Stomachs were inflated with 0.9% saline, cut along the greater curvature, pinned out and scored for gastric damage by the following system:
Score 1-3 according to the degree of erythema and slight haemorrhage.
Score 4-6 according to the degree of mucosal erosion.
Score 7-9 according to the depth of gastric damage.
Compound or vehicle was administered orally 30 minutes prior to, and at 2 hours after dosing with indomethacin. Mean values per treatment were obtained using the above scoring system and the Mann Witney test applied for significance between such values.

Data set [4] relates to acetylcholine. To be noted: Farmaco. Ed. Sci. 19, 668-702 (1964); cited from earlier work.
[5] abbreviates: read-out: % Inhibition, Volume (of gastric secretion).
Where [6] appears, read: read-out: % Inhibition, [H^+ ] (hydrogen ion concentration of gastric juice).
[7] abbreviates: 30 minutes prior to and 2 hours after indomethacin (15 mg/kg s.c.).
[8] abbreviates: 100 mg/kg orally, 30 minutes prior to and 2 hours after indomethacin (15 mg/kg s.c.).

As to `COc1ccc(C(=NOCCN(C)C)c2cccs2)cc1` [4-methoxyphenyl 2-thienyl ketone, O-dimethylaminoethyl oxime], in data set [1], the anti-androgenic activity result was “showed anti-androgenic activity” and the “effective dose relative to toxic dose” value is recorded as “the effective dose was very close to the toxic dose”.
Regarding `CON=C(c1ccccc1)c1ccncc1` [Compound 1, Phenyl 4-pyridinyl ketone, O-methyl oxime], the inhibition in vivo at 100 mg/kg in data set [2] (setting [5]) turned out to be 82%; in data set [2] (setting [6]), 41%. The inhibition in vivo at 50 mg/kg in data set [3] (setting [7]) amounted to 86%.
Taken in the same sequence, the figures for `CO/N=C(\c1ccccc1)c1ccccn1` [Compound 2, phenyl 2-pyridinyl ketone, O-methyl oxime] were 76%, 33% and 79%.
Turning to `CO/N=C(\c1ccccc1)c1cccnc1` [Compound 3, phenyl 3-pyridinyl ketone, O-methyl oxime], the inhibition in vivo at 100 mg/kg in data set [2] (setting [5]) is 87%; in data set [2] (setting [6]) it was 50%. Moreover, the inhibition in vivo at 50 mg/kg in data set [3] (setting [7]) worked out at 82%.
For `CO/N=C(\c1ccccc1)c1ccncc1` [Compound 4, phenyl 4-pyridinyl ketone, O-methyl oxime], the inhibition in vivo at 100 mg/kg in data set [2] (setting [5]) came out at 82%; in data set [2] (setting [6]), 50%; in data set [3] (setting [8]) it was 77%.
Take `CON=C(c1ccncc1)c1ccc(C)cc1` [Compound 6, 4-methylphenyl 4-pyridinyl ketone, O-methyl oxime]: the inhibition in vivo at 100 mg/kg in data set [2] (setting [5]) was determined as 81%; in data set [2] (setting [6]) it was 89%; in data set [3] (setting [8]) it was 80%.
As for `CO/N=C(\c1ccncc1)c1ccc(OC)cc1` [Compound 7, 4-methoxyphenyl 4-pyridinyl ketone, O-methyl oxime], the inhibition in vivo at 100 mg/kg in data set [3] (setting [8]) worked out at 88%.
With `CO/N=C(\c1ccncc1)c1ccc(F)cc1` [Compound 8, 4-fluorophenyl 4-pyridinyl ketone, O-methyl oxime], the results for the inhibition in vivo at 100 mg/kg in data set [2] (setting [5]), in data set [2] (setting [6]) and in data set [3] (setting [8]) were 76%, 11% and 100%, respectively.
As for `CO/N=C(\c1ccncc1)c1ccc(Cl)cc1` [Compound 9, 4-chlorophenyl 4-pyridinyl ketone, O-methyl oxime], the inhibition in vivo at 100 mg/kg in data set [3] (setting [8]) was found to be 80%.
Regarding `CON=C(c1ccncc1)c1ccc(Cl)c(Cl)c1` [Compound 10, 3,4-dichlorophenyl 4-pyridinyl ketone, O-methyl oxime], the inhibition in vivo at 100 mg/kg in data set [2] (setting [6]) is 49%.
Take `CON=C(c1ccccn1)c1cccs1` [Compound 11, 2-pyridinyl 2-thienyl ketone, O-methyl oxime]: the inhibition in vivo at 100 mg/kg amounted to 84% in data set [2] (setting [5]), 36% in data set [2] (setting [6]) and 78% in data set [3] (setting [8]).
Taken in the same sequence, the figures for `CON=C(c1ccsc1)c1ccccn1` [Compound 12, 2-pyridinyl 3-thienyl ketone, O-methyl oxime] were 78%, 20% and 100%.
Regarding `CON=C(c1ccncc1)c1cccs1` [Compound 14, 4-pyridinyl 2-thienyl ketone, O-methyl oxime], the inhibition in vivo at 100 mg/kg in data set [3] (setting [8]) came to 77%.
As for `CON=C(Cc1ccccn1)c1ccccc1` [Compound 16, phenyl 2-pyridinylmethyl ketone, O-methyl oxime], the inhibition in vivo at 100 mg/kg in data set [2] (setting [5]) was found to be 46%; in data set [2] (setting [6]), 25%; in data set [3] (setting [8]), 72%.
Regarding `CON=C(c1ccccn1)c1ccccn1` [Compound 17, di-2-pyridinyl ketone, O-methyl oxime], the inhibition in vivo at 100 mg/kg is 83% in data set [2] (setting [5]), 14% in data set [2] (setting [6]) and 76% in data set [3] (setting [8]).
Turning to `CON=C(c1ccncc1)c1ccc(C(F)(F)F)cc1` [Compound 18, 4-pyridinyl 4-trifluoromethylphenyl ketone, O-methyl oxime], the inhibition in vivo at 100 mg/kg in data set [2] (setting [5]) turned out to be 59%.
For `CON=C(c1ccncc1)c1ccc(CO)cc1` [Compound 19, 4-hydroxymethylphenyl 4-pyridinyl ketone, O-methyl oxime], the inhibition in vivo at 100 mg/kg in data set [2] (setting [5]) was found to be 66%; in data set [2] (setting [6]), 35%; in data set [3] (setting [8]), 71%.
With `N#CCON=C(c1ccccc1)c1ccncc1` [Compound 20, Phenyl 4-pyridinyl ketone, O-cyanomethyl oxime], in data set [3], the inhibition in vivo at 100 mg/kg came to 96%.
`CCON=C(c1ccccc1)c1ccncc1` [Compound 21, phenyl 4-pyridinyl ketone, O-ethyl oxime]: the values for the inhibition in vivo at 100 mg/kg in data set [2] (setting [5]) and in data set [2] (setting [6]) were 77% and 24%, respectively. This compound returned an inhibition in vivo at 50 mg/kg in data set [3] (setting [7]) of 100%.
On to `C=CCON=C(c1ccccc1)c1ccncc1` [Compound 22, phenyl 4-pyridinyl ketone, O-allyl oxime], for which the inhibition in vivo at 100 mg/kg stood at 76% in data set [2] (setting [5]) and 79% in data set [3] (setting [8]).
For `C#CCON=C(c1ccccc1)c1ccncc1` [Compound 23, phenyl 4-pyridinyl ketone, O-propargyl oxime], the inhibition in vivo at 100 mg/kg in data set [2] (setting [5]) came to 81%.
Turning to `CN(C)CCON=C(c1ccccc1)c1ccccn1` [Compound 24, phenyl 2-pyridinyl ketone, O-2-N,N-dimethylaminoethyl oxime], the inhibition in vivo at 100 mg/kg in data set [2] (setting [5]) was determined as 81%; in data set [2] (setting [6]) it was 36%; in data set [3] (setting [8]), 100%.
Taken in the same sequence, the figures for `CN(C)CCCON=C(c1ccccc1)c1ccccn1` [Compound 25, phenyl 2-pyridinyl ketone, O-3-N,N-dimethylaminopropyl oxime] were 91%, 65% and 77%.
Take `CN(C)CCON=C(c1ccccc1)c1cccnc1` [Compound 26, phenyl 3-pyridinyl ketone, O-2-N,N-dimethylaminoethyl oxime]: in data set [2] (setting [5]), the inhibition in vivo at 100 mg/kg stood at 84%.
Consider `CN(C)CCCON=C(c1ccccc1)c1cccnc1` [Compound 27, phenyl 3-pyridinyl ketone, O-3-N,N-dimethylaminopropyl oxime], for which the inhibition in vivo at 100 mg/kg in data set [2] (setting [5]) was found to be 85%.
For the compound `CN(C)CCON=C(c1ccccc1)c1ccncc1` [Compound 28, phenyl 4-pyridinyl ketone, O-2-N,N-dimethylaminoethyl oxime], the inhibition in vivo at 100 mg/kg in data set [2] (setting [5]) was determined as 83%; in data set [2] (setting [6]), 92%; in data set [3] (setting [8]), 92%.
As for `CN(C)CCCON=C(c1ccccc1)c1ccncc1` [Compound 29, phenyl 4-pyridinyl ketone, O-3-N,N-dimethylaminopropyl oxime], the inhibition in vivo at 100 mg/kg came to 72% in data set [2] (setting [5]), 45% in data set [2] (setting [6]) and 65% in data set [3] (setting [8]).
The corresponding values for `CN(C)CCCON=C(c1ccccn1)c1cccs1` [Compound 30, 2-pyridinyl 2-thienyl ketone, O-3-N,N-dimethylaminopropyl oxime] are 78%, 64% and 77%.
Taken in the same sequence, the figures for `CN(C)CCCON=C(c1ccccn1)c1ccco1` [Compound 31, 2-furyl 2-pyridinyl ketone, O-3-N,N-dimethylaminopropyl oxime] were 70%, 30% and 92%.
Turning to `CO/N=C(/c1ccccc1)c1cc[n+]([O-])cc1` [Compound 32, Phenyl 4-pyridinyl ketone, O-methyl oxime, N-oxide (Z-isomer)], the inhibition in vivo at 100 mg/kg in data set [2] (setting [5]) was found to be 84%; in data set [2] (setting [6]), 32%; in data set [3] (setting [8]) it was 64%.
Consider `CN(C)CCON=C(Cc1ccccn1)c1ccccc1` [phenyl 2-picolinyl ketone, O-dimethylaminoethyl oxime], for which the “effective dose relative to toxic dose” value in data set [1] was “the effective dose was very close to the toxic dose”.
Regarding `C[N+](C)(C)CCON=C(c1ccccc1)c1ccccn1.[I-]` [phenyl 2-pyridinyl ketone, O-dimethylaminoethyl oxime methiodide], the acetylcholine antagonistic activity result in data set [4] is given as “showed acetylcholine antagonistic activity”.
